Experimental data reported in ChEMBL document CHEMBL4265887 (Bioorg Med Chem Lett, 2018).
Values after ≈ are worked out from the molar mass of the structure shown. Active and inactive are the calls of the source. The calls are words filed in the database; no cut-off is given here.

How the values were obtained:
HCT-116 [1] = test: Cytotoxicity against human HCT116 cells assessed as reduction in cell viability after 48 hrs by MTT assay; format: functional, cell-based; settings: HCT-116, 48 h
HCT-15 = test: Cytotoxicity against human HCT15 cells assessed as reduction in cell viability after 48 hrs by MTT assay; format: functional, cell-based; settings: HCT-15, 48 h
HCT-116 [2] = test: Induction of apoptosis in human HCT116 cells at 100 nM after 72 hrs by Annexin V-FITC staining-based flow cytometric analysis; format: functional, cell-based
HCT-116 [3] = test: Inhibition of cytokinesis in human HCT116 cells at 100 nM after 24 hrs by propidium iodide/RNase staining-based flow cytometric analysis; format: functional, cell-based
HCT-116 [4] = test: Induction of apoptosis in human HCT116 cells at 1 uM after 72 hrs by Annexin V-FITC/propidium iodide staining-based flow cytometric analysis; format: functional, cell-based
HCT-116 [5] = test: Inhibition of cytokinesis in human HCT116 cells at 1 uM after 24 hrs by propidium iodide/RNase staining-based flow cytometric analysis; format: functional, cell-based
[6] = Solubility of the compound in phosphate buffer of pH 7.4 after 24 hrs by RP-HPLC analysis; format: physicochemical; settings: phosphate buffer, pH 7.4
[7] = Solubility of the compound in phosphate buffer of pH 2 after 24 hrs by RP-HPLC analysis; format: physicochemical
HCT-116 [8] = test: Synergistic cytotoxicity against human HCT116 cells assessed as reduction in cell viability by measuring combination index at 1:1 compound to erlotinib ratio after 48 hrs by MTT assay; format: functional
HCT-116 [9] = test: Synergistic cytotoxicity against human HCT116 cells assessed as reduction in cell viability by measuring combination index at 1:1 compound to trichostatin A ratio after 48 hrs by MTT assay; format: functional
HCT-116 [10] = test: Synergistic cytotoxicity against human HCT116 cells assessed as reduction in cell viability by measuring combination index at 1:1 compound to dasatinib ratio after 48 hrs by MTT assay; format: functional
HCT-116 [11] = test: Synergistic cytotoxicity against human HCT116 cells assessed as reduction in cell viability by measuring combination index at 1:1 compound to crizotinib ratio after 48 hrs by MTT assay; format: functional
HT-29 [12] = test: Synergistic cytotoxicity against human HT-29 cells assessed as reduction in cell viability by measuring combination index at 1:1 compound to GSK2126458 ratio after 48 hrs by MTT assay; format: functional
HT-29 [13] = test: Synergistic cytotoxicity against human HT-29 cells assessed as reduction in cell viability by measuring combination index at 1:1 compound to erlotinib ratio after 48 hrs by MTT assay; format: functional
HT-29 [14] = test: Synergistic cytotoxicity against human HT-29 cells assessed as reduction in cell viability by measuring combination index at 1:1 compound to dasatinib ratio after 48 hrs by MTT assay; format: functional
HT-29 [15] = test: Synergistic cytotoxicity against human HT-29 cells assessed as reduction in cell viability by measuring combination index at 1:1 compound to crizotinib ratio after 48 hrs by MTT assay; format: functional
[16] = target: Tyrosine-protein kinase receptor UFO (Homo sapiens) (UniProt P30530); test: Inhibition of AXL (unknown origin) at 10 uM
Chain of Tyrosine-protein kinase receptor UFO (Homo sapiens) (P30530 whole entry): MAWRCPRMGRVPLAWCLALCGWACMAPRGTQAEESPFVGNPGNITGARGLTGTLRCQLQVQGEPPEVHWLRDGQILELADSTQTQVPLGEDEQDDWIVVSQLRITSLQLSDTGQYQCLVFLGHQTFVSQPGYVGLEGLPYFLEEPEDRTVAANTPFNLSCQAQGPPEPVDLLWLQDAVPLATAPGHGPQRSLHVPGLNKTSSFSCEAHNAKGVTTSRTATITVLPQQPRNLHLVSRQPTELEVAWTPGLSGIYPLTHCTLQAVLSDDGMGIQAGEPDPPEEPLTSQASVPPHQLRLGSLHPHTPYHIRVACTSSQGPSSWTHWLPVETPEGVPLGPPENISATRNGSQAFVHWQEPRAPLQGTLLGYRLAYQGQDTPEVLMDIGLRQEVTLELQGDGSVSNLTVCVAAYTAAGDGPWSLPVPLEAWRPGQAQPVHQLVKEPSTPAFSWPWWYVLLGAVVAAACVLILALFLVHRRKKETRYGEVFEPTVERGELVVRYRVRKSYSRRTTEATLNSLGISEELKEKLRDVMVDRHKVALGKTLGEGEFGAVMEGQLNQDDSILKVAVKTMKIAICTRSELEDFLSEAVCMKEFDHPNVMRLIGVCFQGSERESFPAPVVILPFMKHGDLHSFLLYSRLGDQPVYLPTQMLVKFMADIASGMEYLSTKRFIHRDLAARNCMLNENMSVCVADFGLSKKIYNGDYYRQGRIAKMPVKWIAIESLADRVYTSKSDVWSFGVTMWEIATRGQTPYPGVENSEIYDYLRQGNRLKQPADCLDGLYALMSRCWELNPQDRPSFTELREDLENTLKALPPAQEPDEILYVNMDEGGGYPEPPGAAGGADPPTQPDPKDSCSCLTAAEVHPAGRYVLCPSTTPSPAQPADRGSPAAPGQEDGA

[17] = target: Vascular endothelial growth factor receptor 2 (Homo sapiens) (UniProt P35968); test: Inhibition of VEGFR2 (unknown origin) at 10 uM
[18] = target: Proto-oncogene tyrosine-protein kinase Src (Homo sapiens) (UniProt P12931); test: Inhibition of c-Src (unknown origin) at 10 uM
[19] = target: Tyrosine-protein kinase JAK3 (Homo sapiens) (UniProt P52333); test: Inhibition of JAK3 (unknown origin) at 10 uM
Chain of Tyrosine-protein kinase JAK3 (Homo sapiens) (P52333 whole entry): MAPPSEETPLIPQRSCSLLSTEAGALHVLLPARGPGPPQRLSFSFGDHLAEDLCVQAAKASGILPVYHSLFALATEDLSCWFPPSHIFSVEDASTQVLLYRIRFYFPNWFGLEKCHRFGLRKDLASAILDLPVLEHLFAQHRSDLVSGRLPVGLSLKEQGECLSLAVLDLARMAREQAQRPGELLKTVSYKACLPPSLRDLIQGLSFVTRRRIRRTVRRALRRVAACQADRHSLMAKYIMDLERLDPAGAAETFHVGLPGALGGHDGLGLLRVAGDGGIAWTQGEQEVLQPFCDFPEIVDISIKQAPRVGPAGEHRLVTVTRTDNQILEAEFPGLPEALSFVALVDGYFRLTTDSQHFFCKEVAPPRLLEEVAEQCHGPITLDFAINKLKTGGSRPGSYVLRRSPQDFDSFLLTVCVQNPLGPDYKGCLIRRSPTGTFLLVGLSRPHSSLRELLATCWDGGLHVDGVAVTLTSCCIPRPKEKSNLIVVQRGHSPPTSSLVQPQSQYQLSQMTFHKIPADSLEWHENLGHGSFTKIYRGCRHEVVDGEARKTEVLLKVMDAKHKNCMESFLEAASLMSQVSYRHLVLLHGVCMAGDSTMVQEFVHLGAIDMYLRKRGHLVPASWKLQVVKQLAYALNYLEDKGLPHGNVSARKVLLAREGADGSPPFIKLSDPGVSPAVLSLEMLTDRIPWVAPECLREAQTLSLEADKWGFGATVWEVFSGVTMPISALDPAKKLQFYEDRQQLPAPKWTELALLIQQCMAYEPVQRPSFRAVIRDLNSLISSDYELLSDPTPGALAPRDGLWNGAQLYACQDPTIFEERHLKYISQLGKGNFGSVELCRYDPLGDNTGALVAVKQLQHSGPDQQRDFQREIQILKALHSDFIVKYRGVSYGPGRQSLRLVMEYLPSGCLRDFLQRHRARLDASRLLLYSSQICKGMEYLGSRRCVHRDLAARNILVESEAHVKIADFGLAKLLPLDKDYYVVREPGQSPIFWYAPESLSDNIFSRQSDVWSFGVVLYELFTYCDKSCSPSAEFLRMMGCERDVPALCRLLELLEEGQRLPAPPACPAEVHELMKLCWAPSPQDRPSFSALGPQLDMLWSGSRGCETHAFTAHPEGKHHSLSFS

[20] = target: Serine/threonine-protein kinase PAK 4 (Homo sapiens) (UniProt O96013); test: Inhibition of PAK4 (unknown origin) at 10 uM
[21] = target: High affinity nerve growth factor receptor (Homo sapiens) (UniProt P04629); test: Inhibition of TrkA (unknown origin) at 10 uM
[22] = target: Platelet-derived growth factor receptor beta (Homo sapiens) (UniProt P09619); test: Inhibition of PDGFRbeta (unknown origin) at 10 uM
[23] = target: Epithelial discoidin domain-containing receptor 1 (Homo sapiens) (UniProt Q08345); test: Inhibition of DDR1 (unknown origin) at 10 uM
[24] = target: Mast/stem cell growth factor receptor Kit (Homo sapiens) (UniProt P10721); test: Inhibition of c-KIT (unknown origin) at 10 uM
[25] = target: Serine/threonine-protein kinase Chk1 (Homo sapiens) (UniProt O14757); test: Inhibition of CHK1 (unknown origin) at 10 uM
[26] = target: Serine/threonine-protein kinase B-raf (Homo sapiens) (UniProt P15056); test: Inhibition of BRAF (unknown origin) at 10 uM
[27] = target: Hepatocyte growth factor receptor (Homo sapiens) (UniProt P08581); test: Inhibition of c-MET (unknown origin) at 10 uM
[28] = target: Cyclin-dependent kinase 4/cyclin D1 (Homo sapiens) (UniProt P11802+P24385); test: Inhibition of CDK4/Cyclin D1 (unknown origin) at 10 uM; format: protein-complex assay
[29] = target: Receptor tyrosine-protein kinase erbB-2 (Homo sapiens) (UniProt P04626); test: Inhibition of ErbB2 (unknown origin) at 10 uM
[30] = target: CDK2/Cyclin A2 (Homo sapiens) (UniProt P24941+P20248); test: Inhibition of CDK2/cyclin A (unknown origin) at 10 uM; format: protein-complex assay
[31] = target: Insulin receptor (Homo sapiens) (UniProt P06213); test: Inhibition of INSR (unknown origin) at 10 uM
[32] = target: Serine/threonine-protein kinase PAK 1 (Homo sapiens) (UniProt Q13153); test: Inhibition of PAK1 (unknown origin) at 10 uM
[33] = target: Tyrosine-protein kinase SYK (Homo sapiens) (UniProt P43405); test: Inhibition of SYK (unknown origin) at 10 uM
[34] = target: Inhibitor of nuclear factor kappa-B kinase subunit beta (Homo sapiens) (UniProt O14920); test: Inhibition of IKKbeta (unknown origin) at 10 uM
[35] = target: Interleukin-1 receptor-associated kinase 4 (Homo sapiens) (UniProt Q9NWZ3); test: Inhibition of IRAK4 (unknown origin) at 10 uM
Chain of Interleukin-1 receptor-associated kinase 4 (Homo sapiens) (Q9NWZ3 whole entry): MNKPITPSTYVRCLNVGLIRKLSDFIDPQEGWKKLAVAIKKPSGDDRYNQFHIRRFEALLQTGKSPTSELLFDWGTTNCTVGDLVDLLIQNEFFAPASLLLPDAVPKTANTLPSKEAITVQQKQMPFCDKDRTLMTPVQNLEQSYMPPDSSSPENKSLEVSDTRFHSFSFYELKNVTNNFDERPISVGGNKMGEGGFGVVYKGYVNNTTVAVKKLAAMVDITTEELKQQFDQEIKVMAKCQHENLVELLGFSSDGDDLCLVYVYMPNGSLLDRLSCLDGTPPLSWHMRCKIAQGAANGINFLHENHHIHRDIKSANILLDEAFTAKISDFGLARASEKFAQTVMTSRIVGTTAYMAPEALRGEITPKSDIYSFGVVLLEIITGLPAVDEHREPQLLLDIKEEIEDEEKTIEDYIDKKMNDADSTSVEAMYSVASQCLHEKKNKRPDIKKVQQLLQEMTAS

[36] = target: RAC-alpha serine/threonine-protein kinase (Homo sapiens) (UniProt P31749); test: Inhibition of AKT1 (unknown origin) at 10 uM
[37] = target: Death-associated protein kinase 3 (Homo sapiens) (UniProt O43293); test: Inhibition of ZIPK (unknown origin) at 10 uM
Chain of Death-associated protein kinase 3 (Homo sapiens) (O43293 whole entry, looked up): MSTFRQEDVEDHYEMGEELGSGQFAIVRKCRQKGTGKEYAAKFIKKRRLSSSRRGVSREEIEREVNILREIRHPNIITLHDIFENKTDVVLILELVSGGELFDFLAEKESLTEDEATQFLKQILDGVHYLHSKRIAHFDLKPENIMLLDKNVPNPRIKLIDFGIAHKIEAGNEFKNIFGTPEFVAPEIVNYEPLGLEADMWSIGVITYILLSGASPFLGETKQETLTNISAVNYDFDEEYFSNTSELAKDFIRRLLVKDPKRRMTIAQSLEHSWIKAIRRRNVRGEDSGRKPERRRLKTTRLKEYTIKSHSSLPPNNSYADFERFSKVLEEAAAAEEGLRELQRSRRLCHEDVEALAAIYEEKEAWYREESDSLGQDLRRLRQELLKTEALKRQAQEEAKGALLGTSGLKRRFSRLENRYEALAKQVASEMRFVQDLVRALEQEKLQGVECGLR

[38] = target: Mitogen-activated protein kinase 8 (Homo sapiens) (UniProt P45983); test: Inhibition of JNK1 (unknown origin) at 10 uM
Chain of Mitogen-activated protein kinase 8 (Homo sapiens) (P45983 whole entry): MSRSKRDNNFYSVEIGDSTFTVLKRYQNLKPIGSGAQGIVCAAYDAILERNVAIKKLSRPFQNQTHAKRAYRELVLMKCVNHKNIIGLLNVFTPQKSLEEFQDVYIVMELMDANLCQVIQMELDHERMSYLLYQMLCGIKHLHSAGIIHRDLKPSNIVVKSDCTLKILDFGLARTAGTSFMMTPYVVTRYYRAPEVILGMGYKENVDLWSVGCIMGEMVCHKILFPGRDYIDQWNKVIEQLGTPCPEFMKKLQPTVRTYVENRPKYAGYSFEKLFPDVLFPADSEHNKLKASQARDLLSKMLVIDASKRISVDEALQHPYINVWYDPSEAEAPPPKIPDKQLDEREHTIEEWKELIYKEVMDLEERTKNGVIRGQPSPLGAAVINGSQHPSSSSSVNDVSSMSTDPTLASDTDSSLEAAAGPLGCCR

[39] = target: Rho-associated protein kinase 2 (Homo sapiens) (UniProt O75116); test: Inhibition of ROCK2 (unknown origin) at 10 uM
Chain of Rho-associated protein kinase 2 (Homo sapiens) (O75116 whole entry, looked up): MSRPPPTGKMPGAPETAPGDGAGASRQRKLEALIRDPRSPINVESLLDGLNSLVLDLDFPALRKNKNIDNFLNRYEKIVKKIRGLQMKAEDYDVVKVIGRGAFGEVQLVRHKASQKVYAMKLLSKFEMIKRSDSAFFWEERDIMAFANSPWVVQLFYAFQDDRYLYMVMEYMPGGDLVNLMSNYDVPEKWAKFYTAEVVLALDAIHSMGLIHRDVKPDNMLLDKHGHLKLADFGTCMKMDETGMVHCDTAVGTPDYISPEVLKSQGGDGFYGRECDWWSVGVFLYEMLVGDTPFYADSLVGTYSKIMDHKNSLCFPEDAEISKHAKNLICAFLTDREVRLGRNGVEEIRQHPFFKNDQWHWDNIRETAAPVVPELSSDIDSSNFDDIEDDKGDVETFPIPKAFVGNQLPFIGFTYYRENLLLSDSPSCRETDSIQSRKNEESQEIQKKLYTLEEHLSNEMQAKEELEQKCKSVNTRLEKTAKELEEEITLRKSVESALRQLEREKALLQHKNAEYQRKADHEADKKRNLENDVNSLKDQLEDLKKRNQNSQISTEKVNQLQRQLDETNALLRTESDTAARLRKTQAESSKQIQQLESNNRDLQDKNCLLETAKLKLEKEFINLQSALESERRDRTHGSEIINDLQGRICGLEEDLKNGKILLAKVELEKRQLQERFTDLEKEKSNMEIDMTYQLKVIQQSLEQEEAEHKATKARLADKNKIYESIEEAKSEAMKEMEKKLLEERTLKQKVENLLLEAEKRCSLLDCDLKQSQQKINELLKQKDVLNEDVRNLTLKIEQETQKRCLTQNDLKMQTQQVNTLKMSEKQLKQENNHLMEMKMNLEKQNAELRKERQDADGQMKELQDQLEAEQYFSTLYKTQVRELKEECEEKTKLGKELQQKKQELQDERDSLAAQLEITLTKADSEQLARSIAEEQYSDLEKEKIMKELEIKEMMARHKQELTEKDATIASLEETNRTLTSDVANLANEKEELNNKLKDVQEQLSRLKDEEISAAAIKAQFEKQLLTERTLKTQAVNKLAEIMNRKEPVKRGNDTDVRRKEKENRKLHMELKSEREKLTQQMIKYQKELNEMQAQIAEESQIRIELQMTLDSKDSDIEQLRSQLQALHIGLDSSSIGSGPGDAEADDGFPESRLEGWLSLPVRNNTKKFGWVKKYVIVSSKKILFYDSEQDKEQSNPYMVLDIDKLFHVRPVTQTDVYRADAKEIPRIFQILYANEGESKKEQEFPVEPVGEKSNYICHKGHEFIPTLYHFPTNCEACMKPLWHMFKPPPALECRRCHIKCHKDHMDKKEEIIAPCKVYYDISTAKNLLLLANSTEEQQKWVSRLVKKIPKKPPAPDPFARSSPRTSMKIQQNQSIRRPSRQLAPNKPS

[40] = target: Serine/threonine-protein kinase mTOR (Homo sapiens) (UniProt P42345); test: Inhibition of mTOR (unknown origin) at 10 uM

solubility at 24 h [6]: 1.9 µM (≈ 0.86 µg/mL)
solubility at 24 h [7]: 1.8 µM (≈ 0.815 µg/mL)
inhibition [16]: 112%
inhibition [17]: 109%
inhibition [18]: 105%
inhibition [19]: 99.6%
inhibition [20]: 95.7%
inhibition [21]: 95.3%
inhibition [22]: 88%
inhibition [23]: 84.4%
inhibition [24]: 71.6%
inhibition [25]: 62.8%
inhibition [26]: 53.5%
inhibition [27]: 47.4%
inhibition [28]: 44.1%
inhibition [29]: 35.9%
inhibition [30]: 33.9%
inhibition [31]: 28.5%
inhibition [32]: 26.7%
inhibition [33]: 16.6%
inhibition [34]: 16.2%
inhibition [35]: 16%
inhibition [36]: 13.6%
inhibition [38]: 12.2%
inhibition [39]: 11.8%
inhibition [40]: 8.62%
Compound: CNC(=O)Nc1sc2c(C(C)C)cc(NS(=O)(=O)c3cccs3)cc2c1C(N)=O
IC50 (HCT-116 [1]): 290 nM
IC50 (HCT-15): 620 nM
Activity (HCT-116 [2]): Active
Cytokinesis inhibition (active/inactive call) (HCT-116 [3]): Active
Activity (HCT-116 [4]): Active
Cytokinesis inhibition (active/inactive call) (HCT-116 [5]): Active
CI (HCT-116 [8]): 0.25
CI (HCT-116 [9]): 0.195
CI (HCT-116 [10]): 1
CI (HCT-116 [11]): 0.136
CI (HT-29 [12]): 1.044
CI (HT-29 [13]): 0.075
CI (HT-29 [14]): 0.073
CI (HT-29 [15]): 0.102
inhibition [37]: 12.9%
